Results as given in patent publication US9950074B2, “Composition and delivery vehicle for active agents and methods therefor” (Georg-August-Universität Göttingen Stiftung Öffenlichen …, priority 2012, dated 2018).

How the values were obtained:
[1] = system: primary rat choroids plexus epithelial cells; conditions: read-out: Km of FRα-dependent uptake; low extracellular folate concentrations; cited from earlier work
[2] = target: reduced folate carrier (RFC, SLC19A1) (Homo sapiens, UniProt P41440); conditions: read-out: influx Km of the RFC; cited from earlier work
Sequence of reduced folate carrier (RFC, SLC19A1) (P41440 whole entry): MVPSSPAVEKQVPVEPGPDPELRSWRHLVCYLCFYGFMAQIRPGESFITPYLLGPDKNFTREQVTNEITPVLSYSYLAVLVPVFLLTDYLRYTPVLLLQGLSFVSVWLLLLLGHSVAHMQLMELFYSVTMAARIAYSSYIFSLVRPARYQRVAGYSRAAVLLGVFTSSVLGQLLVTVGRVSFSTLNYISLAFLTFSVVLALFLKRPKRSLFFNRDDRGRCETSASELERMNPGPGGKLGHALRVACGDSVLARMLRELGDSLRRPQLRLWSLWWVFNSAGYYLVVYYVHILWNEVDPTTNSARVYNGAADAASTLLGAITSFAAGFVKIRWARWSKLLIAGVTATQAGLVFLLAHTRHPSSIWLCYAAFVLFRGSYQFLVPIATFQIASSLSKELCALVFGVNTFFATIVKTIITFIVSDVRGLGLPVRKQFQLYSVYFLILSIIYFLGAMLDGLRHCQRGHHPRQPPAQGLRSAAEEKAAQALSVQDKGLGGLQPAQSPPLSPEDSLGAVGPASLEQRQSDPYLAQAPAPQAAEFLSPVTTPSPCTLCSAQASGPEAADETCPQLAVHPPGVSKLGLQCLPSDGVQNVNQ

[3] = system: Z310 cells stably expressing FRα; test: [3H]5MTHF uptake with transporter inhibitors; format: cell-based, rat; conditions: 12.5 nM [3H]5MTHF, 1 hour at 37° C.
Method: Z310 cells stably expressing FRα were incubated with 12.5 nM [^3H]5MTHF alone or together with TC, MTX, PAH, probenecid and digoxin for 1 hour at 37° C. Subsequently, cells were lysed and intracellular radioactivity was measured.
We performed additional experiments to evaluate FRα-independent transport processes in Z310 cells at physiological MTHF concentration (12.5 nM). A couple of organic anion transporters are known to be expressed in Z310 cells (Halwachs et al., 2011). […] At this concentration MTX is known to block FR-mediated MTHF binding as well.

[4] = system: primary porcine choroid plexus epithelial cells (PCPEC); test: apical transport of 5MTHF in primary PCPECs; format: cell-based; conditions: PCPEC loaded with 25 nM [3H]5MTHF for 24 hours; 7 μM monensin
Method: Filter-grown PCPECs were loaded with 25 nM [^3H]5MTHF for 24 hours. Cells were then incubated with 7 μM monensin or left untreated. Radioactivity from medium samples was measured at the indicated time points. […] Data are means±s.e.m. of two independent experiments, each done in triplicate.
Porcine choroid plexus epithelial cells (PCPECs) were prepared basically as described previously (Hakvoort et al., 1998: J Neurochem 71, 1141-1150). Isolated PCPECs were seeded in laminin-coated transwell culture plates (0.4 μm pore size, Costar, Cambridge, Mass.) with a diameter of 12 mm using a seeding density of 20 mg wet tissue/cm2. The cell culture medium (DMEM-Ham's F-12, Biochrom, Berlin, Germany) was supplemented with 10% fetal calf serum, 4 mM glutamine, 5 μg/ml insulin, 100 U/mL penicillin and 100 μg/mL streptomycin. Cytosine arabinoside (20 μM) was added to suppress the growth of contaminating cells. After reaching confluence at days in vitro (DIV) 8, growth medium was replaced by serum-free culture medium (SFM) to support cell differentiation and improve barrier function. At DIV 10, the medium was replaced by folate-free RPMI medium (Invitrogen) without serum.
Filter-grown PCPEC were loaded with 25 nM [^3H]5MTHF for 24 hours. Subsequently, medium was changed and cells were treated with 7 μM monensin or left untreated.

[5] = system: Z310 cells stably transfected with FRα; test: apical release (shedding) of [3H]5MTHF from filter-grown Z310 cells; format: cell-based; conditions: FRα-transfected Z310 cells loaded 1 h with [3H]5MTHF; 7 μM monensin or 0.5 mg/ml rat transferrin
Method: After three washing steps, cells were incubated with fresh RPMI medium containing either 7 μM monensin (Mon) or 0.5 mg/ml rat transferrin (Trans) or contained no supplementation. Samples from the apical and basolateral compartment were removed at the indicated time points. Subsequently, cells were lysed and radioactivity was measured in medium samples and cell lysates. Data are means±s.e.m. of three independent experiments.
For 5MTHF uptake and transport measurements in Z310 cells, 4.2*104 cells were seeded in laminin coated transwell culture plates (0.3 cm2 growth area, 0.4 μm pore size) in folate-free RPMI medium. To test the barrier function, dye permeability assays with lucifer yellow were performed. Cells were used for experiments when the permeability was below 1% per hour. […] Radioactivity in medium samples and cell lysates was measured in a liquid scintillation spectrometer.
FRα-transfected or vector-transfected Z310 cells were grown in a two chamber transwell system and [^3H]5MTHF was either given into the basolateral or apical compartment. After a 1 h incubation with [^3H]5MTHF the medium was replaced by fresh medium and the time-dependent emergence of [^3H]5MTHF in both compartments was detected.

[6] = system: primary mixed cortical cultures; test: internalization assay in primary mixed cortical cultures; format: cell-based, neonatal mice; conditions: 2 hours at 37° C.
Method: Disassociated neonatal cortices from postnatal day 0-2 mice were cultured in DMEM supplemented with 10% fetal calf serum, 1% GlutaMAX (Invitrogen), 100 U/mL penicillin and 100 μg/mL streptomycin on laminin- and poly-L-lysin-coated coverslips at 37° C. in 5% CO2. Medium was changed every 3-4 days. At DIV 7-14, mixed cortical cultures consisting of oligodendrocytes, cortical neurons and microglia on an astrocyte monolayer were obtained.
Mixed cortical cultures were obtained form neonatal mice and immediately plated on coverslips and incubated in the respective growth medium. Before the internalization assay, exosomes were purified from Z310 cells, stably transfected with FRα or vector and labelled with PKH26 and FA-FITC as described above. The uptake was performed by incubating the cell cultures with exosome dilutions for 2 hours at 37° C. and 5% CO2. Cells were then fixed, permeabilized and stained with the respective antibodies for immunofluorescence analysis.
We have unexpectedly disclosed FRα as exosomal cargo in the CSF. To further understand the biological function of this transport mechanism we injected exosomes derived from FRα-transfected or vector-transfected Z310 cells into the lateral ventricle of C57BL/6 mice. […] After incubating the cells for 2 hours at 37° C., cells were fixed and analyzed by immunofluorescence microscopy.

## CN1c2c(nc(N)[nH]c2=O)NCC1CNc1ccc(C(=O)N[C@@H](CCC(=O)O)C(=O)O)cc1 (some centres unmarked) [5MTHF, 5-methyltetrahydrofolate]
[1]
  Km: ~9.5 nM
[2]
  Km: 2 to 7 µM

## CN(Cc1cnc2nc(N)nc(N)c2n1)c1ccc(C(=O)N[C@@H](CCC(=O)O)C(=O)O)cc1 [MTX, methotrexate]
[3]; inhibitor at 10 μM
  effect on uptake of [3H]5MTHF: significantly reduced 5MTHF uptake

## C[C@H]1O[C@@H](O[C@H]2[C@@H](O)C[C@H](O[C@H]3[C@@H](O)C[C@H](O[C@H]4CC[C@@]5(C)[C@H](CC[C@@H]6[C@@H]5C[C@@H](O)[C@]5(C)[C@@H](C7=CC(=O)OC7)CC[C@]65O)C4)O[C@@H]3C)O[C@@H]2C)C[C@H](O)[C@@H]1O [digoxin]
[3]
  effect on uptake of [3H]5MTHF: none of the inhibitors reduced the uptake

## CC[C@@]1([C@@H]2O[C@@H]([C@H]3O[C@@](O)(CO)[C@H](C)C[C@@H]3C)C[C@@H]2C)CC[C@H]([C@]2(C)CC[C@]3(C[C@H](O)[C@@H](C)[C@@H]([C@@H](C)[C@@H](OC)[C@H](C)C(=O)O)O3)O2)O1 [monensin]
[4]
  enhancement of apical accumulation of [3H]5MTHF: 33%
[5]
  increase of apical shedding of [3H]5MTHF: 70%

## Nc1ccc(C(=O)NCC(=O)O)cc1 [p-aminohippuric acid]
[3]
  effect on uptake of [3H]5MTHF: none of the inhibitors reduced the uptake

## CCCN(CCC)S(=O)(=O)c1ccc(C(=O)O)cc1 [probenecid]
[3]
  effect on uptake of [3H]5MTHF: none of the inhibitors reduced the uptake

## Folic acid conjugated to fluorescein isothiocyanate [FA-FITC]
[6]; combined with FRα-positive exosomes
  delivery of FA-FITC to cells: delivered to astrocytes
[6]; free FA-FITC without exosomes
  internalization of FA-FITC by cells: none of the cell types internalized free FA-FITC

B1: transferrin: rat transferrin (Rockland), known to induce exosome release from cells (protein, UniProt P12346 20-698, looked up)
Serotransferrin: VPDKTVKWCAVSEHENTKCISFRDHMKTVLPADGPRLACVKKTSYQDCIKAISGGEADAITLDGGWVYDAGLTPNNLKPVAAEFYGSLEHPQTHYLAVAVVKKGTDFQLNQLQGKKSCHTGLGRSAGWIIPIGLLFCNLPEPRKPLEKAVASFFSGSCVPCADPVAFPQLCQLCPGCGCSPTQPFFGYVGAFKCLRDGGGDVAFVKHTTIFEVLPQKADRDQYELLCLDNTRKPVDQYEDCYLARIPSHAVVARNGDGKEDLIWEILKVAQEHFGKGKSKDFQLFGSPLGKDLLFKDSAFGLLRVPPRMDYRLYLGHSYVTAIRNQREGVCPEGSIDSAPVKWCALSHQERAKCDEWSVSSNGQIECESAESTEDCIDKIVNGEADAMSLDGGHAYIAGQCGLVPVMAENYDISSCTNPQSDVFPKGYYAVAVVKASDSSINWNNLKGKKSCHTGVDRTAGWNIPMGLLFSRINHCKFDEFFSQGCAPGYKKNSTLCDLCIGPAKCAPNNREGYNGYTGAFQCLVEKGDVAFVKHQTVLENTNGKNTAAWAKDLKQEDFQLLCPDGTKKPVTEFATCHLAQAPNHVVVSRKEKAARVSTVLTAQKDLFWKGDKDCTGNFCLFRSSTKDLLFRDDTKCLTKLPEGTTYEEYLGAEYLQAVGNIRKCSTSRLLEACTFHKS
[5]
  increase of apical shedding of [3H]5MTHF: 36%
